According to US9775844B2, “Heterocyclic compounds and uses thereof” (Infinity Pharmaceuticals, Inc., priority 2014, dated 2017):
Where two headings read alike, the source gives them in different places.

Tests used:
LLC tumor = LLC tumor brei model; assay type: in vivo
Oral exposure in the rat = assay type: in vivo
Oral exposure in the dog = assay type: in vivo
[1] = system: CXCL12-induced pAKT in T-cells; assay: CXCL12-induced pAKT assay in T-cells; assay type: cell-based, human; conditions: FIG. 9
Description: There was a tight correlation between the EC50s observed in the CXCL12-induced pAKT assay and the T-cell migration assay.

[2] = system: LPS induced neutrophil influx in bronchoalveolar lavage fluid; assay: LPS-induced neutrophilia, oral administration; assay type: in vivo; conditions: rat, p.o., 4 hours post-LPS challenge, dose dependent
Method: This study also includes assessment of the exposure to the compounds in plasma and lung tissues.
Ref C is budesonide p.o. The compound was administered p.o. and about 1 hour later, LPS was administered intra-tracheally and plasma was collected. After about 5 hours, plasma and bronchoalveolar lavage samples were collected.

[3] = Unbound concentrations in tumor and plasma, LLC model, 12 days daily oral administration; assay type: in vivo, mouse; conditions: Plasma, 12 days daily oral administration in NMP solution, read-out: Free Conc
Description: Below is a table of details:

MC38 tumor cells = assay: MC38 colon cancer model; assay type: in vivo, mouse
Method: In this model, a syngeneic colon cancer cell line is run subcutaneously. The experimental setup was as follows.
The cell injection volume was 0.05 ml per mouse. When tumors reached an average size of 80-100 mm^3, a pair match was made and treatment began. The tumor was measured by caliper biweekly.
The dosing volume was 5 mL/kg.
For all animals, blood was collected by terminal cardiac puncture under isoflurane anesthesia. The blood was processed for plasma. In addition, tumor samples were collected.
At study end, tumors were isolated, fixed in 10% neutral buffered formalin and embedded in paraffin for histologic analysis. […] T-cells within the tumor sections were identified utilizing a CD3-specific antibody via automated immunohistochemistry equipment (Ventana). Once stained, slides were digitalized via Aperio slide scanning equipment. Next, stained tumor sections were quantified via Definians software to assess the percentage of CD3 positive cells within each tumor.

[4] = system: CD11b+ myeloid cells in 4T1 tumors; assay: Immunohistochemistry of CD11b / CD68 myeloid cells in 4T1 tumors; assay type: in vivo, mouse; conditions: vs vehicle/controls
Method: Immunohistochemistry was performed to determine the distribution of immune cells within the tumor. In particular, CD11b myeloid cells were examined, as were regulatory vs. effector T cells (CD3, CD4, CD8, FoxP3). Briefly, IHC for CD11b or CD68+ was performed as follows. CD11b antibodies were available from Abcam, clone I-70, Catalong # ab 8878. CD68 antibodies were available from Abcam, clone FA-11, catalog # ab 53444. Tissues were fixed in cold methanol, air-dried, and then stained using a Res IHC Omni-UltraMap HRP XT protocol.
Without being bound by a particular theory, the decrease in the pro-tumorigenic tumor associated myeloid cells can result in activation of cytotoxic T-cells and anti-tumor immunity. […] When the images were quantified as CD11b+ cells per total viable cells (FIG. 37E), a Student t-Test p-value of 0.0355 was obtained when comparing the Compound BB-treated cells to controls. When the images were quantified as CD11b+ stained area per total visible area (FIG. 37F), a Student t-Test p-value of 0.0441 was obtained when comparing the Compound BB-treated cells to controls. […] When the images were quantified as CD11b+ cells per total viable cells (FIG. 37G), a Student t-Test p-value of 0.0864 (d16) or 0.3967 (d22) was obtained when comparing the Compound BB-treated cells to controls. […]

[5] = system: KPC Pancreatic Cancer cells; assay: RNA expression profiling (TLDA) of KPC pancreatic cancer tumors; assay type: in vivo, mouse
Method: RNA expression profiling was performed for immuno-phenotyping with a Taqman low density array (TLDA).
For mouse tumors, snap frozen samples were powdered with a Genogrinder at liquid nitrogen temperatures and RNA was isolated with Trizol. Next, the sample was cleaned-up using Qiashredder, and then using a RNeasy kit.
CT values were used for analysis. For each sample Si and each gene, the following values were calculated: dCT(Si,gene)=CT(Si,gene)−CT(Si,ACTB) ddCT(Si,gene)=dCT(Si,gene)−median(dCT(vehicle treated samples, gene)) RQ(Si, gene)=2^(−ddCT(Si,gene))
This produced a matrix of RQ values: 48 genes (rows)×39 samples (cols).
The analysis used R package Non-negative Matrix Factorization (NMF) with rank=3 and the “lee” algorithm.

[6] = In vitro toxicology studies
LLC tumor brei = LLC tumor brei model with or without cyclophosphamide (tumor growth, FACS); assay type: in vivo, mouse
Method: In this experiment, treatment began when tumors reached approx. 150 mm^3—around day 12. Caliper and xenogen images were monitored. Treatment groups n=13-15/group. […] Samples for FACs analysis were collected on day 23 post implant. Using FACS, cells were assayed for the level of CD11b and Gr-1.

[7] = system: CXCL12 stimulated pAKT in T cells and monocytes; assay: Ex vivo whole blood CXCL12 stimulation of phospho-AKT, LLC-bearing mice; assay type: in vivo, mouse; conditions: 12 days QD PO, 2 h post dose
Method: C57 BL/6 Albino mice were implanted with 1×10^6 cells in a SC injection in the hind flank. The cell implant material was generated from brei that was passaged from mouse to mouse. Treatment started when tumors were between 160-180 mm^3 Mice were dosed for 12 days, QD, PO with vehicle, 15, 7.5 or 3 mg/kg. On day 12 mice were dosed and terminal blood was collected 2 h post dose by cardiac stick collection. Blood was placed in EDTA K2 collection tube and stored at room temp for PD analysis.
Blood from each animal was aliquotted into 2 plates and warmed to 37° C. degrees. PBS was added to one plate as an unstimulated control. Murine CXCL12/SDF-1 was added to the second plate to a final concentration of 800 ng/mL and plate was returned to the 37° C. degree block. After 2 minutes of incubation, blood was lysed and fixed using paraformaldehyde. Samples were washed and frozen until flow cytometric analysis. T cells were gated using an antibody to CD3 and monocytes were gated as LY6G^− LY6C^high. Intracellular pAKT […] was measured and percent positive was used for graphing.

[8] = Pharmacokinetics in rodent and non-rodent animal species; assay type: in vivo
Description: These properties indicate the compound's suitability for in vivo administration.

PGP = PGP (Homo sapiens (Human), UniProt P08183); assay: PGP efflux; assay type: in vitro ADME
Sequence of PGP (P08183 whole entry, species assumed): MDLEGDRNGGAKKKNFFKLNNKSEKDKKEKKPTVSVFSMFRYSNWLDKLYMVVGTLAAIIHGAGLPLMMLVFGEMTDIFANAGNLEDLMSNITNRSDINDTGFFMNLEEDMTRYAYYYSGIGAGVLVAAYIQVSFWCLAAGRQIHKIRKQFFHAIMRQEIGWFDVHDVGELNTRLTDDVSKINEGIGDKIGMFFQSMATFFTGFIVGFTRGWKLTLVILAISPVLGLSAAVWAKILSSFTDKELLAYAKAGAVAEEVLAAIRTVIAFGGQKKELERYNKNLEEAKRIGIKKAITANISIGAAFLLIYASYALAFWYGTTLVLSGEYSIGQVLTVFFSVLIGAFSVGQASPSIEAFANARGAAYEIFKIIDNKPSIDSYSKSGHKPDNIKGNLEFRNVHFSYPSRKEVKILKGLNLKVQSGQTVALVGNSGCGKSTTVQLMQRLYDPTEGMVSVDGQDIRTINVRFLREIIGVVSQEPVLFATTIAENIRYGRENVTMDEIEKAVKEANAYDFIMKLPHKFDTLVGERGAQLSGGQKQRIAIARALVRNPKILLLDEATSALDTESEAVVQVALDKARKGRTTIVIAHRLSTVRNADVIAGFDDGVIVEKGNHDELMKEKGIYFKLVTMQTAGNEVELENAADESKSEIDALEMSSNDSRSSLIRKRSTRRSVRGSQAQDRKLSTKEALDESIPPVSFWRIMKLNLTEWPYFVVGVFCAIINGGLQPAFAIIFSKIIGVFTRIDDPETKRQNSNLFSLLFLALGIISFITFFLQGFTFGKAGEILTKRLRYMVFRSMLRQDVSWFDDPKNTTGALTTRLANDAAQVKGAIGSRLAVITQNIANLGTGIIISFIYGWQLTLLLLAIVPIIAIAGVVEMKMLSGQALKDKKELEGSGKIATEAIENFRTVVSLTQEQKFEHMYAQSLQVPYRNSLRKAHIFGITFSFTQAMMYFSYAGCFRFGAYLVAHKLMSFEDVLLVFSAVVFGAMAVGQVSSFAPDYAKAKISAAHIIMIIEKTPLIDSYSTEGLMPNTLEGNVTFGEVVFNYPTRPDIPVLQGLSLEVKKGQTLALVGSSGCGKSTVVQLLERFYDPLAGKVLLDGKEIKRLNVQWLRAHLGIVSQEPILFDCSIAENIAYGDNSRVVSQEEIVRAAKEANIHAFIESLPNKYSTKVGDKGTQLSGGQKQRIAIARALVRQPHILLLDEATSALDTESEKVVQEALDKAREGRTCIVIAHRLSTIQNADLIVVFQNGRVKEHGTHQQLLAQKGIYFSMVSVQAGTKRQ

4T1 = 4T1 breast cancer model
[9] = system: IL-8 induced neutrophil migration; assay: IL-8 driven murine air pouch model; conditions: mouse air pouch; BB 0.1-3 mg/kg, AA 10-50 mg/kg

With `C[C@H](NC(=O)c1c(N)nn2cccnc12)c1cc2cccc(C#Cc3cnn(C)c3)c2c(=O)n1-c1ccccc1` [Compound BB] the “CD206+M2 polarized suppressive macrophages” value (LLC tumor) was “reduces”, the TAMs (LLC tumor) was “decreased” and the oral exposure (Oral exposure in the rat) was “high”. The oral exposure (Oral exposure in the dog) was “high”, the “inhibition of CXCL12-induced pAKT in T-cells” value [1] was “inhibited CXCL12-induced pAKT in T-cells more strongly” and the “neutrophil in bronchoalveolar lavage fluid (BALF)” value [2] was “reduced neutrophil”. The concentration at 2 h ([3]; C57 Albino, mouse, 3 mg/kg, 2 h) was 25.9 nM, the concentration at 2 h ([3]; C57 Albino, mouse, 7.5 mg/kg, 2 h) was 99 nM and the concentration at 2 h ([3]; C57 Albino, mouse, 15 mg/kg, 2 h) was 157 nM. The concentration at 2 h ([3]; 3 mg/kg, Trough) was 0.75 nM, the concentration at 2 h ([3]; 7.5 mg/kg, Trough) was 8.99 nM and the concentration at 2 h ([3]; 15 mg/kg, Trough) was 8.39 nM. For the same compound, the “intratumoral CD3+ T cells” value (MC38 tumor cells; MC38 tumors vs vehicle, IHC) was “significantly more intratumoral CD3+T cells”, the “tumor growth, MC38 colon cancer model” value (MC38 tumor cells; monotherapy, FIG. 29A) was “significantly inhibited tumor growth” and the “CD11b+ cells in 4T1 tumors (IHC)” value [4] was “statistically significant reduction in CD11b+ cells”. The “M2 macrophage markers VEGF and ARG-1 (RNA)” value ([5]; 3 mg/kg, with or without PDL-1 antibody) was “trended towards reduction”, the “T regulatory and T effector genes (RNA)” value ([5]; alone) was “trend in lower T regulatory and T effector genes” and the “toxicity expected from in vitro toxicology studies” value [6] was “very low toxicity”. For the same compound, the “tumor growth, LLC tumor brei model” value (LLC tumor brei; Compound BB 15 mg/kg QD PO, cyclophosphamide 50 mg/kg EOD IP) was “reduced tumor growth”, the “CD206 population in LLC tumors (FACS)” value (LLC tumor brei; Compound BB PO QD alone or with cyclophosphamide) was “decrease in the CD206 population” and the “ex vivo whole blood CXCL12 stimulation of phospho-AKT in T cells” value [7] was “inhibits”. For the same compound, the “ex vivo whole blood CXCL12 stimulation of phospho-AKT in monocytes” value [7] was “inhibits”, the clearance ([8]; in vivo) was “low clearance” and the half-life in vivo ([8]; in vivo) was “long half-life”. The volume of distribution ([8]; in vivo) was “high volume of distribution”, the oral bioavailability ([8]; rodent and non-rodent animal species) was “high oral bioavailability” and the “PGP efflux@ 10 uM” value (PGP) was “No”. For the same compound, the “tumor growth, orthotopic 4T1 breast cancer model” value (4T1; 7.5 mg/kg PO once daily, FIG. 33A) was “reduced tumor growth”, the “total luciferase flux, orthotopic 4T1 breast cancer model” value (4T1; 7.5 mg/kg PO once daily, FIG. 33B) was “reduced total luciferase flux” and the “tumor growth, 4T1 model, alone or with chemotherapy” value (4T1; Compound BB 15 mg/kg PO QD 2 weeks, 5-FU 50 mg/kg, docetaxel 33 mg/kg, paclitaxel 10 mg/kg IP) was “reduction in tumor growth”. The “anti-tumor activity, subcutaneous 4T1 breast cancer model” value (4T1; single agent, FIG. 34) was “single agent activity”, the “maintenance of anti-tumor effect after discontinuation of treatment” value (4T1; subcutaneous 4T1) was “at least 6 days” and the “IL-8 induced neutrophil migration” value [9] was “blocks IL-8 induced neutrophil migration”.
